Data published in ChEMBL document CHEMBL1201862, “PubChem BioAssay data set” (2004).
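Five compound concentrations were applied to cells in 96-well plates for 48 hours; endpoints were derived by simple linear interpolation of the resulting dose-response curve. The concentration for 50% growth inhibition is given as GI50.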 Activity calls are given as the source filed them. Cut-off read from the data, not from the text of the source: active = GI50 up to about 1.1 µM and inactive = higher.

Experiments:
Experiment in all cases: NCI tumour cell line growth inhibition, 48 h
U-251 = test system: U-251
SF-539 = test system: SF-539
M14 = test system: M14
EKVX = test system: EKVX
786-0 = test system: 786-0
DU-145 = test system: DU-145
MDA-N = test system: MDA-N
NCI-H522 = test system: NCI-H522
MCF7 = test system: MCF7
SF-295 = test system: SF-295
KM12 = test system: KM12
SF-268 = test system: SF-268
PC-3 = test system: PC-3
HT-29 = test system: HT-29
CCRF-CEM = test system: CCRF-CEM
SW-620 = test system: SW-620
SK-MEL-28 = test system: SK-MEL-28
HCT-116 = test system: HCT-116
OVCAR-5 = test system: OVCAR-5
BT-549 = test system: BT-549
SNB-75 = test system: SNB-75
TK-10 = test system: TK-10
CAKI-1 = test system: CAKI-1
MOLT-4 = test system: MOLT-4
COLO 205 = test system: COLO 205
HOP-92 = test system: HOP-92
NCI-H226 = test system: NCI-H226
IGROV-1 = test system: IGROV-1
HCC 2998 = test system: HCC 2998
MDA-MB-435 = test system: MDA-MB-435
RPMI-8226 = test system: RPMI-8226
NCI-H23 = test system: NCI-H23
MDA-MB-231 = test system: MDA-MB-231
UACC-62 = test system: UACC-62
SNB-19 = test system: SNB-19
OVCAR-3 = test system: OVCAR-3
A498 = test system: A498
K562 = test system: K562
SN12C = test system: SN12C
A549 = test system: A549
UO-31 = test system: UO-31
SK-OV-3 = test system: SK-OV-3
RXF 393 = test system: RXF 393
SK-MEL-5 = test system: SK-MEL-5
OVCAR-4 = test system: OVCAR-4
HOP-62 = test system: HOP-62
ACHN = test system: ACHN
HL-60 = test system: HL-60
Hs-578T = test system: Hs-578T
LOX IMVI = test system: LOX IMVI
OVCAR-8 = test system: OVCAR-8
SK-MEL-2 = test system: SK-MEL-2
NCI/ADR-RES = test system: NCI/ADR-RES
UACC-257 = test system: UACC-257
Malme-3M = test system: Malme-3M
HCT-15 = test system: HCT-15
SR = test system: SR

In the case of `C=C(Cl)C(Br)(CBr)CCC(Br)C(C)(C)Br` (configuration not stated), the GI50 (U-251) is reported as 5.11 µM (inactive), the GI50 (SF-539) is reported as 2.54 µM (inactive) and the GI50 (M14) is reported as > 10 µM (inactive). For the same compound, the GI50 (EKVX) was > 10 µM (inactive), the GI50 (786-0) was 1.57 µM (inactive) and the GI50 (DU-145) was > 10 µM (inactive). For the same compound, the GI50 (MDA-N) was 7.57 µM (inactive), the GI50 (NCI-H522) was > 10 µM (inactive) and the GI50 (MCF7) was 2.11 µM (inactive). The GI50 (SF-295) was > 10 µM (inactive), the GI50 (KM12) was 4.37 µM (inactive) and the GI50 (SF-268) was 2.51 µM (inactive). The GI50 (PC-3) was > 10 µM (inactive), the GI50 (HT-29) was 3.33 µM (inactive) and the GI50 (CCRF-CEM) was 3.89 µM (inactive). The GI50 (SW-620) was 2.7 µM (inactive), the GI50 (SK-MEL-28) was > 10 µM (inactive) and the GI50 (HCT-116) was 2.01 µM (inactive). For the same compound, the GI50 (OVCAR-5) was > 10 µM (inactive), the GI50 (BT-549) was > 10 µM (inactive) and the GI50 (SNB-75) was 4.7 µM (inactive). The GI50 (TK-10) was > 10 µM (inactive), the GI50 (CAKI-1) was > 10 µM (inactive) and the GI50 (MOLT-4) was 1.08 µM (active). For the same compound, the GI50 (COLO 205) was 7.33 µM (inactive), the GI50 (HOP-92) was 5.06 µM (inactive) and the GI50 (NCI-H226) was > 10 µM (inactive). For the same compound, the GI50 (IGROV-1) was 1.55 µM (inactive), the GI50 (HCC 2998) was > 10 µM (inactive) and the GI50 (MDA-MB-435) was > 10 µM (inactive). For the same compound, the GI50 (RPMI-8226) was 1.83 µM (inactive), the GI50 (NCI-H23) was > 10 µM (inactive) and the GI50 (MDA-MB-231) was 1.62 µM (inactive). For the same compound, the GI50 (UACC-62) was 4.11 µM (inactive), the GI50 (SNB-19) was 4.25 µM (inactive) and the GI50 (OVCAR-3) was > 10 µM (inactive). The GI50 (A498) was > 10 µM (inactive), the GI50 (K562) was 1.88 µM (inactive) and the GI50 (SN12C) was 7.73 µM (inactive). For the same compound, the GI50 (A549) was 6.87 µM (inactive), the GI50 (UO-31) was > 10 µM (inactive) and the GI50 (SK-OV-3) was > 10 µM (inactive). The GI50 (RXF 393) was 2.75 µM (inactive), the GI50 (SK-MEL-5) was > 10 µM (inactive) and the GI50 (OVCAR-4) was 3.99 µM (inactive). For the same compound, the GI50 (HOP-62) was 6.67 µM (inactive) and the GI50 (ACHN) was 9.16 µM (inactive).

With `CC[C@H](O)[C@H](C)C=C1SCCCS1` the GI50 (U-251) was > 100 µM (inactive), the GI50 (M14) was > 100 µM (inactive) and the GI50 (EKVX) was > 100 µM (inactive). For the same compound, the GI50 (786-0) was > 100 µM (inactive), the GI50 (HL-60) was 34.8 µM (inactive) and the GI50 (Hs-578T) was > 100 µM (inactive). The GI50 (DU-145) was > 100 µM (inactive), the GI50 (MDA-N) was > 100 µM (inactive) and the GI50 (NCI-H522) was > 100 µM (inactive). For the same compound, the GI50 (MCF7) was > 100 µM (inactive), the GI50 (SF-295) was > 100 µM (inactive) and the GI50 (KM12) was > 100 µM (inactive). The GI50 (SF-268) was > 100 µM (inactive), the GI50 (PC-3) was > 100 µM (inactive) and the GI50 (HT-29) was > 100 µM (inactive). The GI50 (CCRF-CEM) was > 100 µM (inactive), the GI50 (SW-620) was > 100 µM (inactive) and the GI50 (SK-MEL-28) was > 100 µM (inactive). For the same compound, the GI50 (HCT-116) was > 100 µM (inactive), the GI50 (OVCAR-5) was > 100 µM (inactive) and the GI50 (BT-549) was > 100 µM (inactive). The GI50 (SNB-75) was > 100 µM (inactive), the GI50 (TK-10) was > 100 µM (inactive) and the GI50 (CAKI-1) was > 100 µM (inactive). For the same compound, the GI50 (LOX IMVI) was > 100 µM (inactive), the GI50 (MOLT-4) was > 100 µM (inactive) and the GI50 (COLO 205) was > 100 µM (inactive). The GI50 (OVCAR-8) was > 100 µM (inactive), the GI50 (HOP-92) was > 100 µM (inactive) and the GI50 (NCI-H226) was > 100 µM (inactive). For the same compound, the GI50 (IGROV-1) was > 100 µM (inactive), the GI50 (HCC 2998) was > 100 µM (inactive) and the GI50 (SK-MEL-2) was > 100 µM (inactive). For the same compound, the GI50 (MDA-MB-435) was > 100 µM (inactive), the GI50 (RPMI-8226) was > 100 µM (inactive) and the GI50 (NCI-H23) was > 100 µM (inactive). The GI50 (MDA-MB-231) was > 100 µM (inactive), the GI50 (NCI/ADR-RES) was > 100 µM (inactive) and the GI50 (UACC-62) was > 100 µM (inactive). For the same compound, the GI50 (UACC-257) was > 100 µM (inactive), the GI50 (OVCAR-3) was > 100 µM (inactive) and the GI50 (Malme-3M) was > 100 µM (inactive). For the same compound, the GI50 (A498) was > 100 µM (inactive), the GI50 (K562) was > 100 µM (inactive) and the GI50 (SN12C) was > 100 µM (inactive). The GI50 (A549) was > 100 µM (inactive), the GI50 (UO-31) was 61.8 µM (inactive) and the GI50 (SK-OV-3) was > 100 µM (inactive). For the same compound, the GI50 (RXF 393) was > 100 µM (inactive), the GI50 (SK-MEL-5) was > 100 µM (inactive) and the GI50 (OVCAR-4) was > 100 µM (inactive). The GI50 (HOP-62) was > 100 µM (inactive), the GI50 (ACHN) was > 100 µM (inactive) and the GI50 (HCT-15) was > 100 µM. The GI50 (SR) was > 100 µM (inactive).
